The values that follow come from patent publication US4918099A, “Drug, preparation and use thereof” (priority 1985, dated 1990).

Read-outs that look alike come from different tables or passages of the source.

Test [1] relates to platelet aggregation in normal human plasma. The test can be described thus: Platelet aggregation in normal human plasma induced by ADP. The following applies: for T/min, Aggregation (first value) / Tmax, Aggregation (first value): control 75.1; for activity at 1000 µM / inhibition at 1000 µM / activity at 100 µM / inhibition at 100 µM: Homo sapiens, Platelet; for activity at 1000 µM / activity at 100 µM: control 100. Format: cell-based. As to the method: (§1) The platelet aggregation was determined by a tubimetric method in a dual-channel aggregometer, assuming that a platelet-poor plasma represented 100% aggregation and that a platelet-rich plasma represented 0% aggregation. Each aggregometer tube was charged with 40 μl of platelet-rich plasma and 50 μl of test sample solution. The mixture was incubated at 37° C. for 2 min., whereupon 50 μl of ADP solution were added. Percent inhibition of the platelet aggregation caused by the test sample solution was calculated as follows: [formula]

The test system of test [2] is cyclo-oxygenase. As to conditions: conventional prostaglandin synthesis inhibitors; cited from earlier work.
The subject of test [3] is platelet aggregation in diabetic human plasma. In words: Platelet aggregation in diabetic human plasma induced by ADP. Format: cell-based. The following applies: for activity at 1000 µM / inhibition at 1000 µM / activity at 100 µM / inhibition at 100 µM: Homo sapiens, Platelet; for activity at 1000 µM / activity at 100 µM: control 100. The protocol:
as §1

In test [4] the test system is prostacyclin synthetase. The following applies: conventional prostaglandin synthesis inhibitors; cited from earlier work.
Test [5] relates to plasmalipid. The following applies: spontaneously hypertensive rats; Fette-Seifen-Anstrichmittel 87, 74-76 (1985); cited from earlier work.
For test [6] the following is noted: Rev. Latinoam. Microbiol. 1, 225-232 (1958); cited from earlier work.
The nature of test [7]: Comparison of synthetic substances with full extract. As to conditions: synthetically prepared substance.
Test [8] relates to lipid peroxidation in the mitochondria of rat liver. The following applies: Arch. Pharm. Res. 7, 63-64, 1984; cited from earlier work.
The conditions of test [9]: Planta Med. 31, 214-220 (1977); cited from earlier work.
Test [10] in a line: Increase of the peripheral insulin action in diabetic mice. The test is classed as in vivo. As to conditions: 0.46 mU/g, control group (FIG. 5). The protocol:
Diabetic mice were divided into a control group and a test group. A dose of 100 mg of brazilin per kg body weight was daily administered to the animals of the test group; instead of brazilin, the same amount of saline solution was injected intraperitoneally to the animals of the control group.
After 30 test days, the body weight of the animals of the test group was higher and the blood sugar values of these animals were lower as compared to the diabetic animals of the control group.
On the 30th test day, the animals were made to fast for 5 h; thereupon, they were injected intravenously with 0.46 mU/g of NPH insulin. Then, the blood sugar values were measured at respective intervals of 5 min.

Setting [11] is: 10^-3 M, read-out: T/min, Aggregation relative to control (second value).
Setting [12] is: 10^-3 M, read-out: Tmax, Aggregation relative to control (second value).
Setting [13] is: 10^-3 M, read-out: T/min, Inhibition.
[14] abbreviates: 10^-3 M, read-out: Tmax, Inhibition.
Setting [15] is: 10^-4 M, read-out: T/min, Aggregation relative to control (second value).
Where [16] appears, read: 10^-4 M, read-out: Tmax, Aggregation relative to control (second value).
Where [17] appears, read: 10^-4 M, read-out: T/min, Inhibition.
Setting [18] is: 10^-4 M, read-out: Tmax, Inhibition.

On to `CC(=O)Oc1ccccc1C(=O)O` [acetylsalicylic acid, reference compound], for which the “T/min, Aggregation (first value)” value in test [1] (10^-3 M) stood at 11.9%; in test [1] (10^-4 M), 17.4%. Further, the “Tmax, Aggregation (first value)” value in test [1] (10^-3 M) stood at 37.5%; in [1] (10^-4 M), 60.2%; in test [3] (10^-3 M, control 78.7), 70.0%; in test [3] (10^-4 M, control 78.7), 73.8%. Also, the values for the activity at 1000 µM in [1] (setting [11]), in test [1] (setting [12]) and in test [3] (setting [12]) were 15.8%, 49.9% and 88.9%, respectively. In addition, the values for the inhibition at 1000 µM in test [1] (setting [13]), in test [1] (setting [14]) and in test [3] (setting [14]) were 84.6%, 50.1% and 11.1%, respectively. The results for the activity at 100 µM in test [1] (setting [15]), in [1] (setting [16]) and in test [3] (setting [16]) were 23.2%, 80.1% and 93.6%, respectively. The inhibition at 100 µM in test [1] (setting [17]) came out at 76.8%; in [1] (setting [18]), 19.9%; in test [3] (setting [18]) it was 6.4%. The inhibition of cyclo-oxygenase result in test [2] is “inhibit the activity of cyclo-oxygenase”. In addition, the “inhibition of prostacyclin synthetase” value in test [4] is “prostacyclin synthetase is also undesirably inhibited”.
In the case of `Oc1cc2c(cc1O)[C@@H]1c3ccc(O)c(O)c3OC[C@]1(O)C2` [hematoxylin], the plasmalipid-reducing effect result in test [5] was “plasmalipid-reducing effect”. Besides, the “T/min, Aggregation (first value)” value is on record as 11.7% in test [1] (10^-3 M); 58.8% in test [1] (10^-4 M); 7.5% in test [3] (10^-3 M, control 78.7). The “Tmax, Aggregation (first value)” value in test [1] (10^-3 M) was 22.6%; in test [1] (10^-4 M) it was 68.1%; in [3] (10^-3 M, control 78.7) it was 52.5%; in [3] (10^-4 M, control 78.7), 76.3%. Further, the activity at 1000 µM in test [1] (setting [11]) came to 15.6%; in [1] (setting [12]), 30.8%; in [3] (setting [11]) it was 9.5%; in test [3] (setting [12]) it was 66.5%. Also, the inhibition at 1000 µM was 84.4% in test [1] (setting [13]), 69.8% in test [1] (setting [14]), 90.5% in test [3] (setting [13]) and 33.5% in test [3] (setting [14]). Further, the figures for the activity at 100 µM in test [1] (setting [15]), in test [1] (setting [16]) and in [3] (setting [16]) were 78.4%, 90.6% and 96.8%, respectively. Also, the inhibition at 100 µM in test [1] (setting [17]) stood at 21.7%; in test [1] (setting [18]), 9.4%; in test [3] (setting [18]), 3.2%. The antibacterial effect entry in [6] was “antibacterial effect”. Also, in test [3] (conclusion on Tables 12 and 13), the “inhibition of the platelet aggregation” value is “considerable inhibition of the platelet aggregation”. Moreover, in test [7], the “effects compared with administration of major amounts of full extract” value was “substantially has the same effects”. The “effect on lipid peroxidation in mitochondria of rat liver” value in test [8] is reported as “effect on the lipid peroxidation”. In [9], the anti-inflammatory effect result is listed as “anti-inflammatory effect”.
`COc1ccc2c(c1)c(CC(=O)O)c(C)n2C(=O)c1ccc(Cl)cc1` [indomethacin]: the inhibition of cyclo-oxygenase entry in [2] was “inhibit the activity of cyclo-oxygenase”. In addition, the “inhibition of prostacyclin synthetase” value in test [4] is “prostacyclin synthetase is also undesirably inhibited”.
Regarding NPH insulin [reference compound], the “blood sugar after i.v. NPH insulin in diabetic control mice” value in test [10] was “cannot significantly change the blood sugar value”.
